Laboratory results published in ChEMBL document CHEMBL1121460, “Some spiro analogues of the potent analgesic ketobemidone” (J Med Chem, 1980).
Activity calls are given as the source filed them. No cut-off for these calls is given here.

Key:
Mus musculus [1] = organism: Mus musculus; assay: Evaluated for analgesic activity in mice using Nilsen test; type: functional
Opioid receptor = Opioid receptor (Rattus norvegicus, UniProt P33533+P34975+P33535); assay: Tested for Opioid receptors affinity determined by the capacity to displace bound, radiolabeled dihydromorphine from rat brain homogenates.
Mus musculus [2] = organism: Mus musculus; assay: Evaluated for analgesic activity in mice using hot plate method; type: functional
Mus musculus [3] = organism: Mus musculus; assay: Evaluated for activity in Nilsen test
Monkey [4] = assay: Evaluated for single dose suppression tests in monkeys at 10 mg/kg; Not Effective (activity in relation to morphine); type: functional, organism-based; parameters: dose 10 mg/kg; settings: Cercopithecidae
Monkey [5] = assay: Evaluated for single dose suppression tests in monkeys at 2 mg/kg; Not Effective (activity in relation to morphine); type: functional, organism-based; parameters: dose 2 mg/kg; settings: Cercopithecidae
Monkey [6] = assay: Evaluated for depressant effects in photocell activity cages at 60 mg/kg; IA is Inactive.; type: functional, organism-based; parameters: dose 60 mg/kg; settings: Cercopithecidae
Monkey [7] = assay: Evaluated for depressant effects in photocell activity cages at 10 mg/kg; IA is Inactive.; type: functional, organism-based; parameters: dose 10 mg/kg; settings: Cercopithecidae
Monkey [8] = assay: Evaluated for single dose suppression tests in monkeys at 5 mg/kg; Not Effective (activity in relation to morphine); type: functional, organism-based; parameters: dose 5 mg/kg; settings: Cercopithecidae
Mus musculus [9] = organism: Mus musculus; assay: Evaluated for analgesic activity in mice using writhing test; type: functional
[10] = Lethal dose in monkeys; type: toxicity, organism-based; settings: cercopithecidae, in vivo
Monkey [11] = assay: Evaluated for activity in inverted screen assay; type: functional; settings: Cercopithecidae

SMILES: CCCCCN1CCC2(CC1)c1cc(O)ccc1C(C)(CC)OC2CC (configuration not stated)
- ED50 (Mus musculus [1]): > 30 mg/kg
- Ki (Opioid receptor): 5 µM
- ED50 (Mus musculus [2]): > 30 mg/kg

SMILES: CCC1OC(C)(C)c2ccc(O)cc2C12CCN(C)CC2 (configuration not stated)
- ED50 (Mus musculus [1]): > 30 mg/kg
- Ki (Opioid receptor): 10 µM
- ED50 (Mus musculus [2]): > 30 mg/kg

SMILES: CCC(=O)C1(c2cccc(O)c2)CCN(C)CC1 [KETOBEMIDONE]
- ED50 (Mus musculus [2]): 0.8 mg/kg

SMILES: CN1CC[C@]23c4c5ccc(O)c4O[C@H]2[C@@H](O)C=C[C@H]3[C@H]1C5 [MORPHINE]
- ED50 (Mus musculus [3]): 0.8 mg/kg

SMILES: CCCCCN1CCC2(CC1)c1cc(O)ccc1C(C)(C)OC2CC (configuration not stated)
- Activity (Monkey [4]): inactive
- ED50 (Mus musculus [1]): > 30 mg/kg
- Activity (Monkey [5]): inactive
- ED50 (Monkey [6]): inactive
- ED50 (Monkey [7]): inactive
- Activity (Monkey [8]): inactive
- ED50 (Mus musculus [9]): 4.2 mg/kg
- Ki (Opioid receptor): 2 µM
- ED50 (Mus musculus [2]): > 30 mg/kg
- LD50 [10]: 80 mg/kg
- ED50 (Monkey [11]): 38 mg/kg

SMILES: C=CCN1CCC2(CC1)c1cc(O)ccc1C(C)(C)OC2CC (configuration not stated)
- ED50 (Mus musculus [1]): > 30 mg/kg
- Ki (Opioid receptor): 5 µM
- ED50 (Mus musculus [2]): > 30 mg/kg
